Assay results published in ChEMBL document CHEMBL5550187, “The Development of a Highly Potent and Selective Human Toll-like Receptor 2 Agonist: Synthesis and Biological Evaluation of CaLGL-1 and Its Derivatives” (J Med Chem, 2024).
Active and inactive are the calls of the source. The rule behind the calls is not given here.

Legend:
Type in all cases: cell-based
[1] = target: Toll-like receptor 2 (Mus musculus) (UniProt Q9QUN7); experiment: Agonist activity at TLR2 in CSF-2/GM-CSF treated wild type C57BL/6 mouse BMDC cells assessed as increase in TNF-alpha mRNA expression at 10 uM measured after 24 hrs by qRT-PCR analysis
[2] = target: Toll-like receptor 2 (Mus musculus) (UniProt Q9QUN7); experiment: Agonist activity at TLR2 in CSF-2/GM-CSF treated wild type C57BL/6 mouse BMDC cells assessed as increase in TNF-alpha level at 10 uM measured after 24 hrs by ELISA
Toll-like receptor 2 [3] = target: T1, Toll-like receptor 2 (Homo sapiens, UniProt O60603); experiment: Agonist activity at TLR2 in PMA-differentiated human THP-1 cells assessed as increase in IL-1beta mRNA expression by qRT-PCR analysis
Toll-like receptor 2 [4] = target: Toll-like receptor 2 (Mus musculus, UniProt Q9QUN7); experiment: Agonist activity at TLR2 in RmGM-CSF-induced wild type Black6 mouse BMDC cells lacking TLR4 assessed as increase in TNFalpha response incubated overnight by ELISA
Toll-like receptor 2 [5] = target: T1, Toll-like receptor 2; experiment: Agonist activity at TLR2 in PMA-differentiated human THP-1 cells assessed as increase in IL-6 mRNA expression by qRT-PCR analysis
Toll-like receptor 2 [6] = target: T1, Toll-like receptor 2; experiment: Agonist activity at TLR2 in PMA-differentiated human THP-1 cells assessed as increase in TNF-alpha mRNA expression by qRT-PCR analysis
TLR2/TLR6 (Homo sapiens) = TLR2/TLR6 (Homo sapiens) (UniProt O60603+Q9Y2C9); experiment: Agonist activity at human TLR2/TLR6 heterodimer transfected in HEK293T cells cotransfected with NF-kappaB promoter assessed as increase in NF-kappaB activation at 1 to 50 uM measured after 24 hrs by Dual-Glo luciferase assay; details: dose 1-50 µM
Toll-like receptor 2 [7] = target: T1, Toll-like receptor 2; experiment: Agonist activity at TLR2 in PMA-differentiated human THP-1 cells assessed as increase in TNF-alpha level by ELISA
[8] = target: Toll-like receptor 1/2 (Homo sapiens) (UniProt O60603+Q15399); experiment: Agonist activity at human TLR1/TLR2 heterodimer transfected in HEK293T cells cotransfected with NF-kappaB promoter assessed as fold increase in NF-kappaB activation at 1 to 50 uM measured after 24 hrs by Dual-Glo luciferase assay relative to TLR2 alone; details: filed as agonist, dose 1-50 µM
Toll-like receptor 2 [9] = target: T1, Toll-like receptor 2; experiment: Agonist activity at human TLR2 transfected in HEK293T cells cotransfected with NF-kappaB promoter assessed as increase in NF-kappaB activation measured after 24 hrs by Dual-Glo luciferase assay; details: filed as agonist

Chain of Toll-like receptor 2 (Mus musculus) (Q9QUN7 whole entry): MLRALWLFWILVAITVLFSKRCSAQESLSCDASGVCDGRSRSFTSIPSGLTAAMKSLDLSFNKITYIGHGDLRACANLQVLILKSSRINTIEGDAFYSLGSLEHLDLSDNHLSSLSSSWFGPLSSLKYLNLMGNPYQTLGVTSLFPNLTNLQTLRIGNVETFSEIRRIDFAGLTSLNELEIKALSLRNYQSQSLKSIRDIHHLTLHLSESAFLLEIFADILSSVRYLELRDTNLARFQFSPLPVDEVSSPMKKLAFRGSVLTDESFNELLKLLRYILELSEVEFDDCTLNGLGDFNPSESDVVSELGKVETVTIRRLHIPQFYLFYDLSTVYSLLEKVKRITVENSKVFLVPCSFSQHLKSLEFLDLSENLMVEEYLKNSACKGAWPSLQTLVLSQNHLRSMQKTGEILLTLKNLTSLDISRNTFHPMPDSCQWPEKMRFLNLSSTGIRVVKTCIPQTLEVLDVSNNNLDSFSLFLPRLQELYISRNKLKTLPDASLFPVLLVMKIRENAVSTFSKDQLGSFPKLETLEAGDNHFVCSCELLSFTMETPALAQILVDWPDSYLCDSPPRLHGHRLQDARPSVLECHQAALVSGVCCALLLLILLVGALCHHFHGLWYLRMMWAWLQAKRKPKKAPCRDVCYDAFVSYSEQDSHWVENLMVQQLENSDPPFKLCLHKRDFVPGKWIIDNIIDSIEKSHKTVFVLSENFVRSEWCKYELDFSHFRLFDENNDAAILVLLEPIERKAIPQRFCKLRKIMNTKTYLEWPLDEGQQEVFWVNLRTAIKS
T1 sequence (O60603 whole entry): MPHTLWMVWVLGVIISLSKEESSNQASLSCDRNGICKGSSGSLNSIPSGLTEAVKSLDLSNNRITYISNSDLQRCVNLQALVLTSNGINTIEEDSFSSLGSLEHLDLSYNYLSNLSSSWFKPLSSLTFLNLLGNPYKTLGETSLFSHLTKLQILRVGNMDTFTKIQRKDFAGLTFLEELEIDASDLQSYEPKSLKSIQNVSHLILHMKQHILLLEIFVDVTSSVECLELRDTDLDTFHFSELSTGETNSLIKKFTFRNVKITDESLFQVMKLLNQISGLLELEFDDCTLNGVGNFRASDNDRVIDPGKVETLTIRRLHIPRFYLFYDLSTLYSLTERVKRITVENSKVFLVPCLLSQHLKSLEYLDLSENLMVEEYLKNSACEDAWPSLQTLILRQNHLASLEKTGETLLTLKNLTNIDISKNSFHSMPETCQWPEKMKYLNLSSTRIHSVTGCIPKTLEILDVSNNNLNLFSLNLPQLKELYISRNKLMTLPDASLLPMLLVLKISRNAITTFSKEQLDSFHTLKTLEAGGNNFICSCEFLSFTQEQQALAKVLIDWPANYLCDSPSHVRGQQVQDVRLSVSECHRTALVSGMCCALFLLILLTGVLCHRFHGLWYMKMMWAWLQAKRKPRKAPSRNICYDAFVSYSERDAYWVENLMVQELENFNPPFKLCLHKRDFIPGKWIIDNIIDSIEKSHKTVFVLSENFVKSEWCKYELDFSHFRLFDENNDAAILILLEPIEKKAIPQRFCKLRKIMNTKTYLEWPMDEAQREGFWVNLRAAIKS
Chain of Toll-like receptor 2 (Mus musculus, UniProt Q9QUN7) (Q9QUN7 whole entry): as the sequence (Q9QUN7 whole entry) above

| Activity ([1]; filed as agonist) | Activity ([2]; filed as agonist) | Activity [1] | Activity [2] | Structure (SMILES) | other results |
| --- | --- | --- | --- | --- | --- |
| Active | Active | – | – | CCCCCCCCCCCC(=O)OC[C@@H](O)CO[C@@H]1O[C@@H]([C@H]2CO[C@H](CCCCCCCCC)O2)[C@H](O)[C@H]1O | – |
| – | – | inactive | inactive | CCCCCCCCCCCCCCCCCCC[C@@H]1OC[C@H]([C@@H]2O[C@@H](OC[C@H](O)COC(=O)CCCCCCCCCCC)[C@H](O)[C@H]2O)O1 | – |
| Active | Active | – | – | CCCCCCCCCCCC(=O)OC[C@@H](O)CO[C@@H]1O[C@@H]([C@H]2CO[C@H](CCCCCCCCCCC)O2)[C@H](O)[C@H]1O | – |
| – | – | – | – | CCCCCCCCCCCCC[C@@H]1OC[C@H]([C@@H]2O[C@@H](OC[C@H](O)COC(=O)CCCCCCCCCCC)[C@H](O)[C@H]2O)O1 | Activity (Toll-like receptor 2 [3]): inactive; EC50 (Toll-like receptor 2 [4]): 3200 nM; Activity (Toll-like receptor 2 [5]): inactive; Activity (Toll-like receptor 2 [6]): inactive |
| – | – | inactive | inactive | CCCCCCCCCCCCCCCCCCC[C@H]1OC[C@H]([C@@H]2O[C@@H](OC[C@H](O)COC(=O)CCCCCCCCCCC)[C@H](O)[C@H]2O)O1 | – |
| Active | Active | – | – | CCCCCCCCCCCC(=O)OC[C@@H](O)CO[C@@H]1O[C@@H]([C@H]2CO[C@@H](CCCCCCCCCCC)O2)[C@H](O)[C@H]1O | Activity (Toll-like receptor 2 [3]; filed as agonist): Active; Activity (Toll-like receptor 2 [5]; filed as agonist): Active; Activity (Toll-like receptor 2 [6]; filed as agonist): Active |
| Active | Active | – | – | CCCCCCCCCCCC(=O)OC[C@@H](O)CO[C@@H]1O[C@@H]([C@H]2CO[C@@H](CCCCCCCCC)O2)[C@H](O)[C@H]1O | – |
| – | – | inactive | inactive | CCCCCCCCCCCCCCCCC[C@@H]1OC[C@H]([C@@H]2O[C@@H](OC[C@H](O)COC(=O)CCCCCCCCCCC)[C@H](O)[C@H]2O)O1 | – |
| – | – | inactive | inactive | CCCCCCCCCCCCCCCCC[C@H]1OC[C@H]([C@@H]2O[C@@H](OC[C@H](O)COC(=O)CCCCCCCCCCC)[C@H](O)[C@H]2O)O1 | – |
| – | – | – | – | CCCCCCCCCCCC[C@@H]1OC[C@H]([C@@H]2O[C@@H](OC[C@H](O)COC(=O)CCCCCCCCCCC)[C@H](O)[C@H]2O)O1 | Activity (TLR2/TLR6 (Homo sapiens)): inactive; EC50 (Toll-like receptor 2 [7]): 0.116 nM; fold change (FC) [8]: 15; Activity (Toll-like receptor 2 [9]): Active |
